Results reported in US20260137697A1, “THIAZOLO[5,4-D]PYRIMIDINE COMPOUNDS, COMPOSITIONS COMPRISING THEM AND USES THEREOF” (University de Montreal, priority 2022, published 2026).

Key:
pERK, HCT116 cells = experiment: Phospho-ERK inhibition, AlphaLISA p-ERK 1/2, HCT-116; format: cell-based, human; details: Table 3; for IC50: HCT116 cells (KRAS G13D), 1 h treatment; for HCT116 pERK (Ymin %): lowest % inhibition value of the pERK IC50 curve, above −20% = no paradoxical induction
Method in brief: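 Cells in RPMI-1640 with 5% FBS plated overnight, then treated 1 h with ten-point dilutions (10 μM to 0.33 nM, 0.5% DMSO). Lysate p-ERK1/2 (Thr202/Tyr204) read by AlphaLISA SureFire Ultra; % inhibition normalised to DMSO and 1 μM trametinib background, IC50 by four-parameter fit.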

BRAF = biological target: T1, BRAF (Homo sapiens, UniProt P15056); experiment: BRAF kinase activity assay (ADP-Glo); format: biochemical; details: Table 3; 10 μM ATP, kinase-dead MEK1 substrate
T1 construct: GST; purchased Millipore Sigma B4062-10UG
Method in brief: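 GST-tagged kinase (0.375 nM) with 75 nM kinase-dead MEK1 and 10 μM ATP in HEPES pH 7.5 buffer, 2 h at 30° C, nine concentrations 100–0.01 nM, 0.05% DMSO. ADP-Glo luminescence; % inhibition vs DMSO and substrate-only blanks, IC50 by four-parameter fit.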

T1 sequence (P15056 whole entry): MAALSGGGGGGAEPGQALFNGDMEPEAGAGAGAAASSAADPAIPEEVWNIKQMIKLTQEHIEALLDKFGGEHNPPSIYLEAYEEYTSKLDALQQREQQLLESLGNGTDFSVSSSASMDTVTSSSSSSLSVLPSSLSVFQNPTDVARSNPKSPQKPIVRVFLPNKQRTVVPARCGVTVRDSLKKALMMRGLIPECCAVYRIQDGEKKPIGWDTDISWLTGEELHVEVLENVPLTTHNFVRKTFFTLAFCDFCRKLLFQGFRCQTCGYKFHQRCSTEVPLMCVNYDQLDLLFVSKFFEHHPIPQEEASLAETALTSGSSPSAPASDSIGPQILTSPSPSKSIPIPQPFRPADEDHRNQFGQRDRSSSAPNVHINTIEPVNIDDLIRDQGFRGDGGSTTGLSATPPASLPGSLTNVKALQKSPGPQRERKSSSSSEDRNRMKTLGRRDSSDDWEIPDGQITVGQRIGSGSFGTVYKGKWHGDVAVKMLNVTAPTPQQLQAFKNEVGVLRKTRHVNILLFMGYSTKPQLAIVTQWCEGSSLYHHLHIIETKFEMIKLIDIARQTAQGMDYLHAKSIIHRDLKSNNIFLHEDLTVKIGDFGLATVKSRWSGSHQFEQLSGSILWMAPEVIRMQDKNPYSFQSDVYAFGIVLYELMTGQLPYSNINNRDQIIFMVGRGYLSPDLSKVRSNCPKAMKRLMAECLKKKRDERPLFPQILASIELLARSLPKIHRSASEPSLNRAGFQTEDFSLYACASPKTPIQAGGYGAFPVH

Row | SMILES | IC50 (pERK, HCT116 cells) [nM] | HCT116 pERK (Ymin %) (pERK, HCT116 cells) [%] | IC50 (BRAF) [nM]
1 | N#CC1(c2cccc3c2ncn3-c2nc3c(Nc4c(F)ccc(NS(=O)(=O)c5cccc(Cl)c5Cl)c4F)ncnc3s2)CC1 [Example 122] | < 500 | 2 | 1 to 10
2 | Cc1c(F)cccc1S(=O)(=O)Nc1ccc(F)c(Nc2ncnc3sc(-n4cc(C(=O)N5C6CCC5CN(C)C6)c5ccccc54)nc23)c1F [Example 44] | < 500 | 3 | < 1
